In this assay the target is T1, soluble guanylate cyclase (sGC) (Homo sapiens, UniProt Q02108+Q02153).
T1 construct: endogenously expressing soluble guanylate cyclase (sGC); endogenous in cells; host or cells: HEK293
T1 sequence (Q02153 1-619): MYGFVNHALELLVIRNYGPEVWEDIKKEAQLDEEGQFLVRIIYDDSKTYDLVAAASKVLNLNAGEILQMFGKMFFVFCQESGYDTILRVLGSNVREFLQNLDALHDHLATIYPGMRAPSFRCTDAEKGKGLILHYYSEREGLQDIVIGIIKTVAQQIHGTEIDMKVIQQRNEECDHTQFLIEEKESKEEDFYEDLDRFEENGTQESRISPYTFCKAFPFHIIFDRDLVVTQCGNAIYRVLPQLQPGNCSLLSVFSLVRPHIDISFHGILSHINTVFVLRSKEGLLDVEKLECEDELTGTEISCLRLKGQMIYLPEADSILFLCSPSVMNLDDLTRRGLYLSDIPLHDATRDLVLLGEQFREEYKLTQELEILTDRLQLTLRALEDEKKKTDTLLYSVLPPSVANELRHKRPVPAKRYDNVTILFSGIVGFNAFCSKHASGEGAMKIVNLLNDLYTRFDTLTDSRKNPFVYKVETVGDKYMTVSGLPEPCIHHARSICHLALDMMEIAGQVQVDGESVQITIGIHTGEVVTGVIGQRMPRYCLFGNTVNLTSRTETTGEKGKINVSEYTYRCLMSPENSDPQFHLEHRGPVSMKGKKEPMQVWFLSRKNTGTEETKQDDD
T1 sequence (Q02108 1-690): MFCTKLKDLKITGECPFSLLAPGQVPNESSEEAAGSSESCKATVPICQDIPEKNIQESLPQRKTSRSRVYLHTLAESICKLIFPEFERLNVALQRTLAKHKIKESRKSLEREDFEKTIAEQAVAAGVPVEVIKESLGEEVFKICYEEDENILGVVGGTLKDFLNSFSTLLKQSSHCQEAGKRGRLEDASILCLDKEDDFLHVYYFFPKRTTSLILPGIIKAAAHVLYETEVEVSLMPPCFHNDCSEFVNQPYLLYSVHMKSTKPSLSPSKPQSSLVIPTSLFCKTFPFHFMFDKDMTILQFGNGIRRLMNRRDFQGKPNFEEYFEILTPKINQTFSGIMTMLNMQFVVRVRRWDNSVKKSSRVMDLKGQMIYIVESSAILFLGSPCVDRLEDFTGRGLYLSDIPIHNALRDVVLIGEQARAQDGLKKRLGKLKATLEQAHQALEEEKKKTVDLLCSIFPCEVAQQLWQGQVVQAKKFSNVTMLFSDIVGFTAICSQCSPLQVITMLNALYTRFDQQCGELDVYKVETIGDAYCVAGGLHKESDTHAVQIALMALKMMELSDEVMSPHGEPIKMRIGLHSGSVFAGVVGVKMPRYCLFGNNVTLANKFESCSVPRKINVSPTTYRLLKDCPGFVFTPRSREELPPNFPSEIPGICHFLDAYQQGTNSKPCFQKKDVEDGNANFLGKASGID
Kind of assay: sGC-HEK-cGMP assay with LC/MS detection. It is filed as cell-based. The following applies: HEK293 whole cells, LC/MS detection of cGMP, 10 μM DETA-NONOate; 50% of high control response (30 μM Compound Y); read-out: Absolute EC50 (nM)- binned (~).

Usually EC50 stands for the midpoint of the concentration-response curve.

For the molecule `CC(=O)c1cc(-c2ncc(F)c(N[C@@H]3CCCC[C@H]3C(=O)O)n2)nn1Cc1ccccc1F` [Compound 137, (1R,2R)-2-((2-(5-acetyl-1-(2-fluorobenzyl)-1H-pyrazol-3-yl)-5-fluoropyrimidin-4-yl)amino)cyclohex anecarboxylic acid], the concentration for a half-maximal effect (EC50) is 100 to 1000 nM.
The result for `CC(=O)c1cc(-c2ncc(F)c(N[C@@H](CC(=O)O)C(C)C)n2)nn1Cc1ccccc1F` [Compound 138, (S)-3-((2-(5-acetyl-1-(2-fluorobenzyl)-1H-pyrazol-3-yl)-5-fluoropyrimidin-4-yl)amino)-4-methylpentanoic acid] reads 100 to 1000 nM; that for `CC(=O)c1cc(-c2ncc(F)c(N3CCC(C(=O)O)(c4ccccc4)CC3)n2)nn1Cc1ccccc1F` [Compound 139, 1-(2-(5-acetyl-1-(2-fluorobenzyl)-1H-pyrazol-3-yl)-5-fluoropyrimidin-4-yl)-4-phenylpiperidine-4-carboxylic acid], 100 to 1000 nM.
As for `CCN(CC)c1nc(-c2cc(-c3ncco3)n(Cc3ccccc3F)n2)ncc1F` [Compound 140], the figure is greater than 1000 nM.
As to `COC1=CC(=O)N(c2nc(-c3cc(-c4ccon4)n(Cc4ccccc4F)n3)ncc2F)C1` [Compound 147, 1-(5-fluoro-2-(1-(2-fluorobenzyl)-5-(isoxazol-3-yl)-1H-pyrazol-3-yl)pyrimidin-4-yl)-4-methoxy-1H-pyrrol-2(5H)-one], the EC50 is greater than 1000 nM.
As for `CC(C)[C@H](CO)Nc1nc(-c2cc(-c3ccon3)n(Cc3ccccc3F)n2)ncc1F` [Compound 148, (R)-2-((5-fluoro-2-(1-(2-fluorobenzyl)-5-(isoxazol-3-yl)-1H-pyrazol-3-yl)pyrimidin-4-yl)amino)-3-methylbutan-1-ol], the figure is less than 100 nM; as for `CC(C)C[C@H](CO)Nc1nc(-c2cc(-c3ccon3)n(Cc3ccccc3F)n2)ncc1F` [Compound 149, (R)-2-((5-fluoro-2-(1-(2-fluorobenzyl)-5-(isoxazol-3-yl)-1H-pyrazol-3-yl)pyrimidin-4-yl)amino)-4-m ethylpentan-1-ol], less than 100 nM; as for `CSCC[C@H](CO)Nc1nc(-c2cc(-c3ccon3)n(Cc3ccccc3F)n2)ncc1F` [Compound 150, (R)-2-((5-fluoro-2-(1-(2-fluorobenzyl)-5-(isoxazol-3-yl)-1H-pyrazol-3-yl)pyrimidin-4-yl)amino)-4-(methylthio)butan-1-ol], less than 100 nM.
As for `CCCC[C@H](CO)Nc1nc(-c2cc(-c3ccon3)n(Cc3ccccc3F)n2)ncc1F` [Compound 151, (R)-2-((5-fluoro-2-(1-(2-fluorobenzyl)-5-(isoxazol-3-yl)-1H-pyrazol-3-yl)pyrimidin-4-yl)amino)hexan-1-ol], the figure is less than 100 nM; as for `CCC[C@H](CO)Nc1nc(-c2cc(-c3ccon3)n(Cc3ccccc3F)n2)ncc1F` [Compound 152, (R)-2-((5-fluoro-2-(1-(2-fluorobenzyl)-5-(isoxazol-3-yl)-1H-pyrazol-3-yl)pyrimidin-4-yl)amino)pentan-1-ol], less than 100 nM.
As for `CCC(N)(CC)CNc1nc(-c2cc(-c3ccon3)n(Cc3ccccc3F)n2)ncc1F` [Compound 153, 2-ethyl-N1-(5-fluoro-2-(1-(2-fluorobenzyl)-5-(isoxazol-3-yl)-1H-pyrazol-3-yl)pyrimidin-4-yl)butane-1,2-diamine], the figure is 100 to 1000 nM; as for `CC(C)C(C)(N)CNc1nc(-c2cc(-c3ccon3)n(Cc3ccccc3F)n2)ncc1F` (stereo not shown) [Compound 154, N1-(5-fluoro-2-(1-(2-fluorobenzyl)-5-(isoxazol-3-yl)-1H-pyrazol-3-yl)pyrimidin-4-yl)-2,3-dimethylbutane-1,2-diamine], 100 to 1000 nM.
For the molecule `CCCC(C)(N)CNc1nc(-c2cc(-c3ccon3)n(Cc3ccccc3F)n2)ncc1F` (stereo not shown) [Compound 155, N1-(5-fluoro-2-(1-(2-fluorobenzyl)-5-(isoxazol-3-yl)-1H-pyrazol-3-yl)pyrimidin-4-yl)-2-methylpentane-1,2-diamine], the EC50 lay in the range of 100 to 1000 nM.
As for `CC(C)CC(C)(N)CNc1nc(-c2cc(-c3ccon3)n(Cc3ccccc3F)n2)ncc1F` (stereo not shown) [Compound 156, N1-(5-fluoro-2-(1-(2-fluorobenzyl)-5-(isoxazol-3-yl)-1H-pyrazol-3-yl)pyrimidin-4-yl)-2,4-dimethylpentane-1,2-diamine], the figure is 100 to 1000 nM; as for `C[C@H]1CCCN(c2nc(-c3cc(-c4ccon4)n(Cc4ccccc4F)n3)ncc2F)[C@H]1C(=O)OCCN1CCOCC1` [Compound 157, (2R,3S)-2-morpholinoethyl 1-(5-fluoro-2-(1-(2-fluorobenzyl)-5-(isoxazol-3-yl)-1H-pyrazol-3-yl)pyrimidin-4-yl)-3-methylpiperidine-2-carboxylate], greater than 1000 nM; as for `O=C(Nc1nc(-c2cc(-c3ccon3)n(Cc3ccccc3F)n2)ncc1F)OCCN1CCOCC1` [Compound 158, 2-morpholinoethyl (5-fluoro-2-(1-(2-fluorobenzyl)-5-(isoxazol-3-yl)-1H-pyrazol-3-yl)pyrimidin-4-yl)carbamate], greater than 1000 nM.
As for `Nc1ccc(CNc2nc(-c3cc(-c4ccon4)n(Cc4ccccc4F)n3)ncc2F)cc1O` [Compound 159, 2-amino-5-(((5-fluoro-2-(1-(2-fluorobenzyl)-5-(isoxazol-3-yl)-1H-pyrazol-3-yl)pyrimidin-4-yl)amino)methyl)phenol], the figure is greater than 30000 nM; as for `O=S(=O)(Nc1ccc(CNc2nc(-c3cc(-c4ccon4)n(Cc4ccccc4F)n3)ncc2F)cc1O)C1CC1` [Compound 160, N-(4-(((5-fluoro-2-(1-(2-fluorobenzyl)-5-(isoxazol-3-yl)-1H-pyrazol-3-yl)pyrimidin-4-yl)amino)methyl)-2-hydroxyphenyl)cyclopropanesulfonamide], 100 to 1000 nM; as for `CS(=O)(=O)Nc1ccc(CNc2nc(-c3cc(-c4ccon4)n(Cc4ccccc4F)n3)ncc2F)cc1O` [Compound 161, N-(4-(((5-fluoro-2-(1-(2-fluorobenzyl)-5-(isoxazol-3-yl)-1H-pyrazol-3-yl)pyrimidin-4-yl)amino)methyl)-2-hydroxyphenyl)methanesulfonamide], 100 to 1000 nM.
As for `O=C(CCNc1nc(-c2cc(-c3ccon3)n(Cc3ccccc3F)n2)ncc1F)OCCN1CCOCC1` [Compound 162, 2-morpholinoethyl 3-((5-fluoro-2-(1-(2-fluorobenzyl)-5-(isoxazol-3-yl)-1H-pyrazol-3-yl)pyrimidin-4-yl)amino)propanoate], the figure is 100 to 1000 nM; as for `COC(=O)CCNc1nc(-c2cc(-c3ccon3)n(Cc3ccccc3F)n2)ncc1F` [Compound 163, methyl 3-((5-fluoro-2-(1-(2-fluorobenzyl)-5-(isoxazol-3-yl)-1H-pyrazol-3-yl)pyrimidin-4-yl)amino)propanoate], less than 100 nM.
As for `CC(C)OC(=O)CCNc1nc(-c2cc(-c3ccon3)n(Cc3ccccc3F)n2)ncc1F` [Compound 164, isopropyl 3-((5-fluoro-2-(1-(2-fluorobenzyl)-5-(isoxazol-3-yl)-1H-pyrazol-3-yl)pyrimidin-4-yl)amino)propanoate], the EC50 was less than 100 nM.
On to `CCOC(=O)CCNc1nc(-c2cc(-c3ccon3)n(Cc3ccccc3F)n2)ncc1F` [Compound 165, ethyl 3-((5-fluoro-2-(1-(2-fluorobenzyl)-5-(isoxazol-3-yl)-1H-pyrazol-3-yl)pyrimidin-4-yl)amino)propanoate], for which the concentration for a half-maximal effect (EC50) lay within 100 to 1000 nM.
As for `C=CCN(C)c1nc(-c2cc(-c3ccon3)n(Cc3ccccc3F)n2)ncc1F` [Compound 166, N-allyl-5-fluoro-2-(1-(2-fluorobenzyl)-5-(isoxazol-3-yl)-1H-pyrazol-3-yl)-N-methylpyrimidin-4-amine], the figure is greater than 1000 nM.
As for `CC(=O)c1cc(-c2ncc(F)c(N3CCC(C(=O)O)(C(C)C)CC3)n2)nn1Cc1ccccc1F` [Compound 179], the figure is 100 to 1000 nM; as for `CC(=O)c1cc(-c2ncc(F)c(NCC(O)CO)n2)nn1Cc1ccccc1F` (stereo not shown) [Compound 180], 100 to 1000 nM.
The result for `CC(=O)c1cc(-c2ncc(F)c(N3CCC(C)(C(=O)O)CC3)n2)nn1Cc1ccccc1F` [Compound 181] reads 100 to 1000 nM.
Regarding `Oc1cccc(F)c1Cn1nc(-c2ncc(F)c(O)n2)cc1-c1ccon1` [Compound 182], the 50% effective concentration (EC50) is greater than 1000 nM.

The record behind these values is US20190284168A1, “PYRAZOLE DERIVATIES AS SGC STIMULATORS” (IRONWOOD PHARMACEUTICALS, INC., priority 2014, published 2019).
